Among the data in patent publication US12030876B2, “Aryl hydrocarbon receptor (AHR) agonists and uses thereof” (Ikena Oncology, Inc., priority 2019, dated 2024) are EC50 values, retold here.

Test [1] deals with T1, AHR (Mus musculus, UniProt P30561).
T1 sequence (P30561 1-848 F348L/P471L): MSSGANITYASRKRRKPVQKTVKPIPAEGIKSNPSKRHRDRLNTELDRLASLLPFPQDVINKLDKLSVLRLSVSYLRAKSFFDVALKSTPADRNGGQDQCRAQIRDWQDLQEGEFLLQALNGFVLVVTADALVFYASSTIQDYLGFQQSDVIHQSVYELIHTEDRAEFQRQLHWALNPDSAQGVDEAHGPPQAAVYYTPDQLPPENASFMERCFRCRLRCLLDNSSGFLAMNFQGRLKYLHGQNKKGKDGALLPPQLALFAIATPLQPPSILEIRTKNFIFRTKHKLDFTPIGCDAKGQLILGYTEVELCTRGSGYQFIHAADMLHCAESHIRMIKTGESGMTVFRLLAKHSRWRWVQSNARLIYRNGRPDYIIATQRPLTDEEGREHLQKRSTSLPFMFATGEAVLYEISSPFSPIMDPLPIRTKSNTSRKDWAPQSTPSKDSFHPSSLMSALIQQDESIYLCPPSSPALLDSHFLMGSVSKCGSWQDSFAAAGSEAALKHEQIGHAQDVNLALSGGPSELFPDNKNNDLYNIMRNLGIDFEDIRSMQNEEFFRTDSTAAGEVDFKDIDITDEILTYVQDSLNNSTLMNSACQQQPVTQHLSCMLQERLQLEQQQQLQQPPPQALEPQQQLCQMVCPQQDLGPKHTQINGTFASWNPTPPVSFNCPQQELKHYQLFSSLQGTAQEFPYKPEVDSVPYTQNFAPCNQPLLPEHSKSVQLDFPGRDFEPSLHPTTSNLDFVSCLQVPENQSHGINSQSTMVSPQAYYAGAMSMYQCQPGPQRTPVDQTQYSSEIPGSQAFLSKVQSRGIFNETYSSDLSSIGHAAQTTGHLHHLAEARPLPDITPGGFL
Put plainly: P450 CYP1A1 Luciferase Assay, Hepa1.6 (agonist). The test is classed as cell-based, murine. As to conditions: Hepa1.6, Table 2. The method, boiled down: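 Murine Hepa1-6 (or other murine/human lines) treated with agonist for 6, 16 or 24 h, then lysed and incubated with luminogenic CYP1A1 substrate (e.g. Luciferin-CEE). Luminescence normalised between no-ligand minimum and reference AHR ligand maximum; EC50 is concentration giving half-maximal activation.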

Test [2] has as its target T2, AHR (Homo sapiens, UniProt P35869).
T2 construct: endogenous in cells; host or cells: HepG2 (human), transfected with a DRE-luciferase reporter only
T2 sequence (P35869 11-848): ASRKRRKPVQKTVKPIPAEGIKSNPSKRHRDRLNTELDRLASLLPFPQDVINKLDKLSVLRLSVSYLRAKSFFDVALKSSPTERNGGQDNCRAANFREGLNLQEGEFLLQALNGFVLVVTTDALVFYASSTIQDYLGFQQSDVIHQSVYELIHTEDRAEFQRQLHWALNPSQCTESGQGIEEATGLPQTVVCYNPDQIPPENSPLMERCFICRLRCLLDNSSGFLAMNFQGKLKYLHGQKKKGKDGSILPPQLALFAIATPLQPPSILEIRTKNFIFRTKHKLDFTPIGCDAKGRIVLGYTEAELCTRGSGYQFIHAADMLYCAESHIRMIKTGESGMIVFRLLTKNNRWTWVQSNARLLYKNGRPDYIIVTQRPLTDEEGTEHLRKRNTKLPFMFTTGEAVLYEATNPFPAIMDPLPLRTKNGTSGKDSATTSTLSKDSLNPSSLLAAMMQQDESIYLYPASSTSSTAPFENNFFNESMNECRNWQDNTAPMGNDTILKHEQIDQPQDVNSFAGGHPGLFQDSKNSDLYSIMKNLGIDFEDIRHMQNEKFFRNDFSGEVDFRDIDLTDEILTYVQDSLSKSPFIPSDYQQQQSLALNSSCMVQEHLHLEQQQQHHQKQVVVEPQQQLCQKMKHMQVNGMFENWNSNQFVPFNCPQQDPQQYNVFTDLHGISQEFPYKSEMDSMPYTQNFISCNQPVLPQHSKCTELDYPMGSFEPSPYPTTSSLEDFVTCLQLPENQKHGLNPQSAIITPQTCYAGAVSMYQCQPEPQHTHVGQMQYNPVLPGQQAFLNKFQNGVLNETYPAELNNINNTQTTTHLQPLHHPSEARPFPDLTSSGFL
Put plainly: DRE-Luciferase Reporter Assay, HepG2 (agonist). The test is classed as cell-based. The settings on record: HepG2, Table 2; read-out: DRE-Luc HepG2 - Agonist: Average EC50. In a few lines: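 Cells carrying a stably or transiently transfected DRE-luciferase reporter, plated overnight at 37 C, then given agonist for 6, 16 or 24 h before lysis and luciferase read-out. Signal scaled between no ligand (minimum) and activating ligand alone, e.g. TCDD (maximum); EC50 = concentration giving half-maximal luciferase activity.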
(In general: Reporter assays use an easily measured gene product as a stand-in for the process of interest.)

Bounds are passed on as bounds.

Usually EC50 stands for the concentration that produces a half-maximal response. In the case of `FC(F)(F)c1cccc(Nc2nc(-c3cccc(Cl)c3)cs2)c1` [Compound P-2], the figures for the concentration giving a half-maximal response (EC50) on AHR [1] and at AHR [2] were 100 to 1000 nM and below 10 nM, respectively.
The corresponding values for `Nc1cccc(-c2csc(Nc3cccc(C(F)(F)F)c3)n2)c1` [I-10] are 100 to 1000 nM and below 10 nM.
